Data: PubChem BioAssay AID2060495 (Molecular Pharmacology Branch, DTP, NCI, 2025)

Tested on: 521955-158-R2-J5-PDC complex spheroid viability
Assay: Anticancer human tumor 521955-158-R2-J5-PDC patient-derived pancreatic carcinoma cell line growth inhibition [GQUAD]
Conditions: for IC50: curve of first compound; for viability, T/C: stronger effect = lower value
Source text: DNA G-quadruplex Stabilizer Agents in Combinations in Complex Spheroids
A high-throughput screen of multi-cell type tumor spheroids was designed to identify active combinations of DNA G-quadruplex stabilizer agents and targeted small molecules. Complex spheroids include a stromal component modeled by human endothelial cells (HUVEC) and fibroblasts modeled by human mesenchymal stem cells (MSCs). The concentration ranges selected for each drug and investigational agent were based upon clinically achievable concentrations if the clinical Cmax of the agent was known.
Compounds. The drugs and investigational agents: pidnarulex (CX-5461; NSC782164), APTO-253 (NSC789042), BRACO-19 (NSC847499), peposertib (NSC802822), ceralasertib (NSC780249), elimusertib (NSC800525), camonsertib (NSC841442), AZD-1390 (NSC803789), olaparib (NSC753686), talazoparib (NSC767125), ART-558 (NSC835418), sotorasib (NSC818433), MRTX-1133 (NSC836407), SN-38 (NSC673596), topotecan (NSC609699), etoposide (NSC141540), doxorubicin (NSC123127), gemcitabine (NSC613327), 5-fluorouracil (NSC19893), paclitaxel (NSC125973), vemurafenib (NSC761431), panobinostat (NSC761190), R-306465 (JNJ-16241199; NSC773264), adavosertib (NSC754352), TP-3654 (NSC805149), carboplatin (NSC241240), KSQ-4279 (NSC840948), and staurosporine (NSC755774) were obtained from the National Cancer Institute (NCI) Developmental Therapeutics Program Chemical Repository (34). The FDA-approved anticancer drug set is available from the NCI Developmental Therapeutics Program. […] The stock solutions were prepared in dimethyl sulfoxide (DMSO, Sigma-Aldrich, St. Louis, MO, cat. D2650) at 800-fold the tested concentration and stored at -70 degrees C prior to their use. All drugs and investigational agents were tested over a range starting from a high concentration at or near the clinical Cmax and decreasing in half-log increments. If the clinical Cmax for an agent had not been determined, the highest concentration tested was 10 microM.
2.3 Cell Culture. All cells were maintained in an incubator at 37 degrees C and 5% CO2 with 95% humidity. The PDC lines were cultured according to standard operating procedures established by the NCI PDMR. All PDCs were thawed and cultured in Matrigel-coated flasks prepared with a working solution of 1X Ham's F-12 nutrient mix, without supplementation (Invitrogen, cat. 11765054), 100 U/mL penicillin-streptomycin (Invitrogen, cat. 15140122), and 2.5% Matrigel (Corning Inc., cat. 354248) for the first three passages. The 857933-349-R-J2-PDC line was cultured in 6C/Colon 1B media, which includes advanced DMEM/F-12 (Thermo Fisher Scientific, cat. 12634028), 10 mM HEPES (Thermo Fisher Scientific, cat. 15630080), 1X GlutaMAX supplement (Thermo Fisher Scientific, cat. 35050061), 0.1 mg/mL primocin (InvivoGen, cat. ant-pm-2), 10% defined fetal bovine serum, heat inactivated (HyClone Laboratories Inc., cat. SH30070.03HI), 50% L-WRN conditioned media (ATCC, cat. CRL-3276), 1.25 mM N-Acetyl-L-cysteine (Sigma-Aldrich, cat. A9165), 10 mM nicotinamide (Sigma-Aldrich, cat. N0636), 1X B-27 supplement (Thermo Fisher Scientific, cat. 17504044), 1X N-2 supplement (Thermo Fisher Scientific, cat. 17502048), 10 microM Y-27632 dihydrochloride (Tocris Bioscience, cat. 1254), and 50 ng/mL human EGF recombinant protein (Thermo Fisher Scientific, cat. PHG0311). The 485176-168-R4-J1-PDC line was cultured in Panc media, which includes all 6C/Colon 1B media components plus 100 ng/mL human FGF-10 (Thermo Fisher Scientific, cat. 100-26), 500 nM SB-431542 (Selleckchem, cat. S1067), and gastrin (Tocris, cat. 3006).
[…]

[1] = second compound 0.0316 µM, first compound 0.0316 µM
[2] = second compound 0.0316 µM, first compound 0.316 µM
[3] = second compound 0.1 µM, first compound 0.0316 µM
[4] = second compound 0.1 µM, first compound 0.316 µM
[5] = second compound 0.316 µM, first compound 0.0316 µM
[6] = second compound 0.316 µM, first compound 0.316 µM
[7] = second compound 1 µM, first compound 0.0316 µM
[8] = second compound 1 µM, first compound 0.316 µM
[9] = second compound 3.16 µM, first compound 0.0316 µM
[10] = second compound 3.16 µM, first compound 0.316 µM
[11] = second compound 10 µM, first compound 0.0316 µM
[12] = second compound 10 µM, first compound 0.316 µM
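Also: spheroids exposed to agents for one week before reading.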
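For viability, T/C in this document: 100% = DMSO vehicle control viability.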

CC(C)(O)C1CCC(Nc2ccc3ncc(-c4cccc(C(F)(F)F)c4)n3n2)CC1 (centres undefined) + Cc1[nH]c2ccc(F)cc2c1-c1nc2c3cccnc3c3ncccc3c2[nH]1
IC50 (second compound 0.0316 µM): 2050 nM | IC50 (second compound 0.1 µM): 1990 nM | IC50 (second compound 0.316 µM): 2010 nM | IC50 (second compound 1 µM): 1960 nM | IC50 (second compound 3.16 µM): 1930 nM | IC50 (second compound 10 µM): 1890 nM | viability, T/C [1]: 93.5% | viability, T/C (second compound 0.0316 µM, first compound 0.1 µM): 109% | viability, T/C [2]: 101% | viability, T/C (second compound 0.0316 µM, first compound 1 µM): 125% | viability, T/C (second compound 0.0316 µM, first compound 3.16 µM): 15.5% | viability, T/C (second compound 0.0316 µM, first compound 10 µM): 10.8% | viability, T/C [3]: 102% | viability, T/C (second compound 0.1 µM, first compound 0.1 µM): 107% | viability, T/C [4]: 103% | viability, T/C (second compound 0.1 µM, first compound 1 µM): 117% | viability, T/C (second compound 0.1 µM, first compound 3.16 µM): 11.3% | viability, T/C (second compound 0.1 µM, first compound 10 µM): 11.7% | viability, T/C [5]: 107% | viability, T/C (second compound 0.316 µM, first compound 0.1 µM): 100% | viability, T/C [6]: 102% | viability, T/C (second compound 0.316 µM, first compound 1 µM): 116% | viability, T/C (second compound 0.316 µM, first compound 3.16 µM): 12.6% | viability, T/C (second compound 0.316 µM, first compound 10 µM): 14.7% | viability, T/C [7]: 95.8% | viability, T/C (second compound 1 µM, first compound 0.1 µM): 94.3% | viability, T/C [8]: 102% | viability, T/C (second compound 1 µM, first compound 1 µM): 121% | viability, T/C (second compound 1 µM, first compound 3.16 µM): 11.7% | viability, T/C (second compound 1 µM, first compound 10 µM): 11.9% | viability, T/C [9]: 91.2% | viability, T/C (second compound 3.16 µM, first compound 0.1 µM): 79.3% | viability, T/C [10]: 92.9% | viability, T/C (second compound 3.16 µM, first compound 1 µM): 113% | viability, T/C (second compound 3.16 µM, first compound 3.16 µM): 16.5% | viability, T/C (second compound 3.16 µM, first compound 10 µM): 10.7% | viability, T/C [11]: 83.2% | viability, T/C (second compound 10 µM, first compound 0.1 µM): 87.8% | viability, T/C [12]: 102% | viability, T/C (second compound 10 µM, first compound 1 µM): 126% | viability, T/C (second compound 10 µM, first compound 3.16 µM): 9.89% | viability, T/C (second compound 10 µM, first compound 10 µM): 9.4%

Cc1[nH]c2ccccc2c1CCNCc1ccc(/C=C/C(=O)NO)cc1 + Cc1[nH]c2ccc(F)cc2c1-c1nc2c3cccnc3c3ncccc3c2[nH]1
IC50 (second compound 0.0316 µM): 112 nM | IC50 (second compound 0.1 µM): 156 nM | IC50 (second compound 0.316 µM): 137 nM | IC50 (second compound 1 µM): 224 nM | IC50 (second compound 3.16 µM): 207 nM | IC50 (second compound 10 µM): 157 nM | viability, T/C (second compound 0.0316 µM, first compound 0.000999 µM): 116% | viability, T/C (second compound 0.0316 µM, first compound 0.00316 µM): 120% | viability, T/C (second compound 0.0316 µM, first compound 0.00999 µM): 132% | viability, T/C [1]: 102% | viability, T/C (second compound 0.0316 µM, first compound 0.0999 µM): 54.1% | viability, T/C [2]: 23.1% | viability, T/C (second compound 0.1 µM, first compound 0.000999 µM): 106% | viability, T/C (second compound 0.1 µM, first compound 0.00316 µM): 109% | viability, T/C (second compound 0.1 µM, first compound 0.00999 µM): 122% | viability, T/C [3]: 116% | viability, T/C (second compound 0.1 µM, first compound 0.0999 µM): 64.5% | viability, T/C [4]: 27.3% | viability, T/C (second compound 0.316 µM, first compound 0.000999 µM): 96.4% | viability, T/C (second compound 0.316 µM, first compound 0.00316 µM): 108% | viability, T/C (second compound 0.316 µM, first compound 0.00999 µM): 117% | viability, T/C [5]: 114% | viability, T/C (second compound 0.316 µM, first compound 0.0999 µM): 58.3% | viability, T/C [6]: 27.8% | viability, T/C (second compound 1 µM, first compound 0.000999 µM): 105% | viability, T/C (second compound 1 µM, first compound 0.00316 µM): 123% | viability, T/C (second compound 1 µM, first compound 0.00999 µM): 131% | viability, T/C [7]: 106% | viability, T/C (second compound 1 µM, first compound 0.0999 µM): 102% | viability, T/C [8]: 27.9% | viability, T/C (second compound 3.16 µM, first compound 0.000999 µM): 106% | viability, T/C (second compound 3.16 µM, first compound 0.00316 µM): 110% | viability, T/C (second compound 3.16 µM, first compound 0.00999 µM): 118% | viability, T/C [9]: 109% | viability, T/C (second compound 3.16 µM, first compound 0.0999 µM): 92% | viability, T/C [10]: 25.6% | viability, T/C (second compound 10 µM, first compound 0.000999 µM): 92.4% | viability, T/C (second compound 10 µM, first compound 0.00316 µM): 105% | viability, T/C (second compound 10 µM, first compound 0.00999 µM): 110% | viability, T/C [11]: 115% | viability, T/C (second compound 10 µM, first compound 0.0999 µM): 66.3% | viability, T/C [12]: 24.7%
